{"source": "patent US6413935B1", "about": "“Induction of immune response against desired determinants” (priority 1993, dated 2002)", "key": {"[1]": {"biological_target": "DR1 (Homo sapiens, UniProt P01903+P01911, A100R/D57E/F55L/F60I/F76Y/I96L/L162R/M171V/P40L/Q125E/R42F/V115G/Y59C)", "conditions": "relative to parent 760.57"}, "[2]": {"biological_target": "T1, DR4w4 (Homo sapiens, UniProt P01903+P01911, A100K/A169T/F76Y/I96L/K127E/L162R/M171V/N62H/P40V/Q125Y/R42H/S133A/S149N/S66Y/V115G/V209L/W38E)", "conditions": "relative to parent 760.57"}, "[3]": {"tested_on": "DR7"}, "[4]": {"tested_on": "DQ3.1"}, "[5]": {"tested_on": "DR5"}, "[6]": {"biological_target": "DR3 (Homo sapiens, UniProt P01903+P01911, A100K/A102G/A103R/A169T/F55Y/I96L/K41T/L162R/M171V/P40S/Q125H/Q178H/Q39Y/R42S/S66N/T106N/T262R/W38E/Y61H)", "experiment": "biochemical"}, "[7]": {"biological_target": "T1, DR4w4", "experiment": "biochemical", "conditions": "PADRE Class II Binding Affinities DR4w4"}, "[8]": {"biological_target": "T2, DR2w2a (Homo sapiens, UniProt P01903+Q30154)", "T2 sequence (P01903 26-254)": "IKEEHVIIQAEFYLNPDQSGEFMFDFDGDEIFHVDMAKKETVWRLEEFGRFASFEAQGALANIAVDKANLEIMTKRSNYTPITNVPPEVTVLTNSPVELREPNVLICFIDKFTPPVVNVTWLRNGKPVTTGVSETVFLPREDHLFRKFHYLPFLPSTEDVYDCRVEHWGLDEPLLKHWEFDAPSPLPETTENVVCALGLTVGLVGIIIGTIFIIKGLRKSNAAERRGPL", "T2 sequence (Q30154 30-266)": "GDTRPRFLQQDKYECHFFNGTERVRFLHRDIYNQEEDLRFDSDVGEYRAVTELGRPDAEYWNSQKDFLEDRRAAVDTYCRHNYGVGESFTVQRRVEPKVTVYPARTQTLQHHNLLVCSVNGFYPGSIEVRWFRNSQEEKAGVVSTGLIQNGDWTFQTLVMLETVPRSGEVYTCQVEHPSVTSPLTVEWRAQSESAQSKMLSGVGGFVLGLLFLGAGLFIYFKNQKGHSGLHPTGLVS", "experiment": "biochemical"}, "[9]": {"tested_on": "human PBMC T cell lines", "assay_type": "cell-based"}, "[10]": {"biological_target": "DRw53 (Homo sapiens, UniProt P01903+P13762)", "sequence (P01903 26-254)": "as the sequence (P01903 26-254) above", "sequence (P13762 30-266)": "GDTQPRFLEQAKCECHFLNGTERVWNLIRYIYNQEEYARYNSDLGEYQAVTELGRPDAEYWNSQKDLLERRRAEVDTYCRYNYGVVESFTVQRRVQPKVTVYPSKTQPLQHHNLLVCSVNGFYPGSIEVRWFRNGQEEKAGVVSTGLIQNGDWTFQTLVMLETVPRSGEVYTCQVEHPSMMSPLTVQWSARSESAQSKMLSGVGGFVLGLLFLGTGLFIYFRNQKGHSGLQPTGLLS", "experiment": "biochemical"}, "[11]": {"biological_target": "T2, DR2w2a", "conditions": "read-out: Binding capacity DR2w2a, IC50"}}, "note": "Like-named read-outs stand apart in the source and are kept apart here. Non-standard residues stand in square brackets, D forms with d. Residues, ends and D or L forms follow the SMILES beside them. No end group written: not given here. Cha = N[C@@H](CC1CCCCC1)C(=O)O", "data": [{"compound": "C[C@H](NC(=O)[C@H](C)NC(=O)[C@H](C)NC(=O)[C@H](CC1CCCCC1)NC(=O)[C@H](C)NC(=O)[C@@H](C)N)C(=O)N[C@@H](C)C(=O)N[C@H](C(=O)N[C@@H](CCC(=O)O)C(=O)N[C@@H](CCCCN)C(=O)N[C@@H](C)C(=O)N[C@@H](C)C(=O)N[C@H](C)C(N)=O)[C@@H](C)O", "note": "[Peptide 906.30] (H-[dA]A[Cha]AAAATEKAA[dA]-NH2; N-terminus and C-terminus assumed)", "values": [{"measurement": "Loss of DR1 binding reactivity", "setting": "[1]", "result": 8, "unit": "fold"}, {"measurement": "Loss of DR4w4 binding reactivity", "setting": "[2]", "result": 7, "unit": "fold"}, {"measurement": "IC50", "setting": "[3]; read-out: PADRE Class II Binding Affinities DR7, Table VIII A", "result": 758, "unit": "nM"}, {"measurement": "Loss of DR7 binding reactivity", "setting": "[3]; relative to parent 760.57", "result": 10, "unit": "fold"}, {"measurement": "IC50", "setting": "[4]; read-out: PADRE Class II Binding Affinities, Table VIII A", "result": 148, "unit": "nM"}, {"measurement": "Increase in DQ3.1 binding reactivity", "setting": "[4]; relative to parent 760.57", "result": "no reactivity was gained"}, {"measurement": "IC50", "setting": "[5]; read-out: PADRE Class II Binding Affinities DR5, Table VIII A", "result": 51.5, "unit": "nM"}, {"measurement": "Loss of DR5 binding reactivity", "setting": "[5]; relative to parent 760.57", "result": 10, "unit": "fold"}]}, {"compound": "CC(C)C[C@H](NC(=O)[C@@H](NC(=O)[C@H](Cc1c[nH]cn1)NC(=O)[C@H](C)NC(=O)[C@H](C)NC(=O)[C@@H](NC(=O)[C@H](CC1CCCCC1)NC(=O)[C@H](CCCCN)NC(=O)[C@@H](C)N)C(C)C)[C@@H](C)O)C(=O)N[C@@H](CCCCN)C(=O)N[C@@H](C)C(=O)N[C@@H](C)C(=O)N[C@H](C)C(N)=O", "note": "[Peptide 955.15]", "values": [{"measurement": "IC50", "setting": "[6]; PADRE Class II Binding Affinities DR3, Table IX", "result": 2500, "unit": "nM"}, {"measurement": "IC50", "setting": "[7]", "result": 3.2, "unit": "nM"}, {"measurement": "IC50", "setting": "[8]; PADRE Class II Binding Affinities DR2w282, Table IX", "result": 5.4, "unit": "nM"}, {"measurement": "Donors with significant (>10,000 cpm) T cell response / donors tested, second stimulation", "setting": "[9]", "result": "2/15"}, {"measurement": "Donors with significant (>10,000 cpm) T cell response / donors tested, third stimulation", "setting": "[9]", "result": "4/5"}, {"measurement": "IC50", "setting": "[10]", "result": 50, "unit": "nM"}]}, {"compound": "CC(C)C[C@H](NC(=O)[C@@H](NC(=O)[C@H](Cc1c[nH]c2ccccc12)NC(=O)[C@H](C)NC(=O)[C@H](C)NC(=O)[C@@H](NC(=O)[C@H](CC1CCCCC1)NC(=O)[C@H](CCCCN)NC(=O)[C@H](C)N)C(C)C)[C@@H](C)O)C(=O)N[C@@H](CCCCN)C(=O)N[C@@H](C)C(=O)N[C@@H](C)C(=O)N[C@@H](C)C(N)=O", "note": "[Peptide 965.17]", "values": [{"measurement": "IC50", "setting": "[6]; PADRE Class II Binding Affinities DR3", "result": 3210, "unit": "nM"}, {"measurement": "IC50", "setting": "[8]; PADRE Class II Binding Affinities DR2w282", "result": 5.8, "unit": "nM"}, {"measurement": "Donors with significant (>10,000 cpm) T cell response / donors tested, second stimulation", "setting": "[9]", "result": "2/5"}, {"measurement": "Donors with significant (>10,000 cpm) T cell response / donors tested, third stimulation", "setting": "[9]", "result": "4/5"}, {"measurement": "IC50", "setting": "[10]", "result": 107, "unit": "nM"}]}, {"compound": "YSGPLKAEIAQRLEDV [MT (Y)17-31, reference compound]", "values": [{"measurement": "IC50", "setting": "[3]; read-out: Binding capacity DR7, IC50", "result": 208, "unit": "nM"}, {"measurement": "IC50", "setting": "[11]", "result": 350, "unit": "nM"}, {"measurement": "IC50", "setting": "[5]; read-out: Binding capacity DR5, IC50", "result": "> 10000", "unit": "nM"}]}]}
